Source: publication PMC4821887, “Identification of chemicals that mimic transcriptional changes associated with autism, brain aging and neurodegeneration” (Nature Communications, 2016)

Test system: mouse cortical cultures
Experiment: RNA-seq differential expression (DESeq) against matched vehicle
Assay type: cell-based
Set-up: key to MeanFenamidone Bcl11b / MeanFenamidone Slc12a4 / MeanFenamidone Abca1 / MeanFenamidone Hmox1 / MeanFenamidone Il1rap / MeanFenamidone Cyba / MeanFenamidone Narf / MeanFenamidone Bnip3 / MeanFenamidone Amotl2 / MeanFenamidone Gad2 / MeanFenamidone Vsnl1 / MeanFenamidone Fam178a: DESeq mean of counts over RefSeq exons
Method: Figure 4 Cluster 2 chemicals alter expression of a common set of genes. […] RNA-seq was performed in quadruplicate after treating cortical cultures with fenamidone (10 μM) or pyraclostrobin (0.1 μM) for 24 h (n=3 biological replicates) and compared with matched vehicle controls using DESeq to detect differentially expressed genes, listed in Supplementary Data 4.
Cultures were treated with the non-cytotoxic dose of each chemical, by exchanging half of the original medium with chemicals at 2 × concentration in prewarmed feeding medium, on DIV 7 for 24 h in 12-well plates at a density of 5 × 10^5 cells per well. RNA was isolated using RNeasy plus mini kit (Cat. #74134, Qiagen). […]. Samples were further assessed for quality using either an Agilent Bioanalyzer 2100 or TapeStation 2200 to obtain a RIN. RIN values exceeding 7 were used for sequencing. RNA samples were used to generate and barcode complementary DNA libraries using the TruSeq RNA Library Preparation Kit at the UNC High Throughput Sequencing Facility. Pools of 24 multiplexed samples were sequenced per lane on an Illumina HiSeq 2500 using 50-bp paired-end reads.
RNA-seq reads were filtered using TagDust and aligned to the reference mouse genome (mm9) with TopHat using default parameters. Reads aligning to ribosomal RNA genes were removed. Transcript abundance was estimated by computing Reads per kilobase per million mapped reads (RPKM) using RefSeq gene models aggregated by gene symbol. For differential expression analyses, raw counts over RefSeq exons were used, and then were compared across samples using DESeq[62].

## CSC1=N[C@@](C)(c2ccccc2)C(=O)N1Nc1ccccc1 [fenamidone]
Gene Kirrel, DESeq mean, 4 reps
  MeanFenamidone Kirrel: 376.176
Gene Kirrel, vs vehicle, 4 reps
  log2FoldChange Kirrel: 1.966
Gene Klf3, DESeq mean, 4 reps
  MeanFenamidone Klf3: 165.964
Gene Klf3, vs vehicle, 4 reps
  log2FoldChange Klf3: 1.6001
Gene Lama5, DESeq mean, 4 reps
  MeanFenamidone Lama5: 696.831
Gene Lama5, vs vehicle, 4 reps
  log2FoldChange Lama5: 3.008
Gene Lamc1, DESeq mean, 4 reps
  MeanFenamidone Lamc1: 1262.75
Gene Lamc1, vs vehicle, 4 reps
  log2FoldChange Lamc1: 1.942
Gene Lats2, DESeq mean, 4 reps
  MeanFenamidone Lats2: 789.339
Gene Lats2, vs vehicle, 4 reps
  log2FoldChange Lats2: 2.05
Gene Lgals1
  MeanFenamidone: 315.526
  log2FoldChange: 2.643
Gene Lgals3, DESeq mean, 4 reps
  MeanFenamidone Lgals3: 148.009
Gene Lgals3, vs vehicle, 4 reps
  log2FoldChange Lgals3: 3.47
Gene Lhfp, DESeq mean, 4 reps
  MeanFenamidone Lhfp: 460.237
Gene Lhfp, vs vehicle, 4 reps
  log2FoldChange Lhfp: 1.564
Gene Lhx6
  MeanFenamidone: 36.2637
  log2FoldChange: -1.466
Gene Lif, DESeq mean, 4 reps
  MeanFenamidone Lif: 71.2282
Gene Lif, vs vehicle, 4 reps
  log2FoldChange Lif: 2.278
Gene Lima1, DESeq mean, 4 reps
  MeanFenamidone Lima1: 304.711
Gene Lima1, vs vehicle, 4 reps
  log2FoldChange Lima1: 2.122
Gene Lipa, DESeq mean, 4 reps
  MeanFenamidone Lipa: 195.186
Gene Lipa, vs vehicle, 4 reps
  log2FoldChange Lipa: 1.701
Gene Lpp
  MeanFenamidone: 386.544
  log2FoldChange: 2.227
Gene Lrig1
  MeanFenamidone: 287.461
  log2FoldChange: 1.313
Gene Lrp2, DESeq mean, 4 reps
  MeanFenamidone Lrp2: 218.41
Gene Lrp2, vs vehicle, 4 reps
  log2FoldChange Lrp2: 3.259
Gene Lrp5, DESeq mean, 4 reps
  MeanFenamidone Lrp5: 104.9
Gene Lrp5, vs vehicle, 4 reps
  log2FoldChange Lrp5: 2.141
Gene Lrrk1, DESeq mean, 4 reps
  MeanFenamidone Lrrk1: 150.568
Gene Lrrk1, vs vehicle, 4 reps
  log2FoldChange Lrrk1: 2.538
Gene Lrrk2, DESeq mean, 4 reps
  MeanFenamidone Lrrk2: 55.3056
Gene Lrrk2, vs vehicle, 4 reps
  log2FoldChange Lrrk2: 2.7898
Gene Lsm11, DESeq mean, 4 reps
  MeanFenamidone Lsm11: 253.873
Gene Lsm11, vs vehicle, 4 reps
  log2FoldChange Lsm11: -1.609
Gene Lzts1, DESeq mean, 4 reps
  MeanFenamidone Lzts1: 28.4823
Gene Lzts1, vs vehicle, 4 reps
  log2FoldChange Lzts1: -2.067
Gene Maff, DESeq mean, 4 reps
  MeanFenamidone Maff: 142.888
Gene Maff, vs vehicle, 4 reps
  log2FoldChange Maff: 2.5091
Gene Man2b1
  MeanFenamidone: 147.398
  log2FoldChange: 1.707
Gene Map9
  MeanFenamidone: 691.478
  log2FoldChange: -1.0525
Gene Mapkapk3, DESeq mean, 4 reps
  MeanFenamidone Mapkapk3: 109.426
Gene Mapkapk3, vs vehicle, 4 reps
  log2FoldChange Mapkapk3: 2.329
Gene Mdk, DESeq mean, 4 reps
  MeanFenamidone Mdk: 140.699
Gene Mdk, vs vehicle, 4 reps
  log2FoldChange Mdk: 2.08
Gene Mdm2
  MeanFenamidone: 455.963
  log2FoldChange: 1.1
Gene Mllt11, DESeq mean, 4 reps
  MeanFenamidone Mllt11: 1306.3
Gene Mllt11, vs vehicle, 4 reps
  log2FoldChange Mllt11: -1.396
Gene Mpp6, DESeq mean, 4 reps
  MeanFenamidone Mpp6: 437.651
Gene Mpp6, vs vehicle, 4 reps
  log2FoldChange Mpp6: 1.381
Gene Msn, DESeq mean, 4 reps
  MeanFenamidone Msn: 1825.06
Gene Msn, vs vehicle, 4 reps
  log2FoldChange Msn: 2.348
Gene Mturn, DESeq mean, 4 reps
  MeanFenamidone Mturn: 252.358
Gene Mturn, vs vehicle, 4 reps
  log2FoldChange Mturn: -1.427
Gene Myh9, DESeq mean, 4 reps
  MeanFenamidone Myh9: 944.67
Gene Myh9, vs vehicle, 4 reps
  log2FoldChange Myh9: 2.571
Gene Myl9
  MeanFenamidone: 343.782
  log2FoldChange: 2.6473
Gene Myl12a, DESeq mean, 4 reps
  MeanFenamidone Myl12a: 537.985
Gene Myl12a, vs vehicle, 4 reps
  log2FoldChange Myl12a: 2.298
Gene Myo9b
  MeanFenamidone: 246.577
  log2FoldChange: 1.347
Gene Myof, DESeq mean, 4 reps
  MeanFenamidone Myof: 104.99
Gene Myof, vs vehicle, 4 reps
  log2FoldChange Myof: 3.761
Gene Nap1l2, DESeq mean, 4 reps
  MeanFenamidone Nap1l2: 81.273
Gene Nap1l2, vs vehicle, 4 reps
  log2FoldChange Nap1l2: -1.959
Gene Nap1l3, DESeq mean, 4 reps
  MeanFenamidone Nap1l3: 110.395
Gene Nap1l3, vs vehicle, 4 reps
  log2FoldChange Nap1l3: -1.464
Gene Narf, DESeq mean, 4 reps
  MeanFenamidone Narf: 102.622
Gene Narf, vs vehicle, 4 reps
  log2FoldChange Narf: -2.14
Gene Ndrg4
  MeanFenamidone: 999.172
  log2FoldChange: -1.28
Gene Nefl, DESeq mean, 4 reps
  MeanFenamidone Nefl: 284.238
Gene Nefl, vs vehicle, 4 reps
  log2FoldChange Nefl: -1.45
Gene Neurl1a
  MeanFenamidone: 95.3821
  log2FoldChange: -1.321
Gene Notch1, DESeq mean, 4 reps
  MeanFenamidone Notch1: 316.63
Gene Notch1, vs vehicle, 4 reps
  log2FoldChange Notch1: 1.887
Gene Notch3, DESeq mean, 4 reps
  MeanFenamidone Notch3: 258.391
Gene Notch3, vs vehicle, 4 reps
  log2FoldChange Notch3: 2.018
Gene Npnt, DESeq mean, 4 reps
  MeanFenamidone Npnt: 335.437
Gene Npnt, vs vehicle, 4 reps
  log2FoldChange Npnt: 1.337
Gene Npr2
  MeanFenamidone: 171.686
  log2FoldChange: 1.617
Gene Nrep
  MeanFenamidone: 2228.26
  log2FoldChange: -1.081
Gene Nrg1
  MeanFenamidone: 57.9878
  log2FoldChange: 2.155
Gene Nrxn3
  MeanFenamidone: 100.585
  log2FoldChange: -1.713
Gene Nsmf
  MeanFenamidone: 509.681
  log2FoldChange: -1.17
Gene Nuak2, DESeq mean, 4 reps
  MeanFenamidone Nuak2: 199.356
Gene Nuak2, vs vehicle, 4 reps
  log2FoldChange Nuak2: 1.954
Gene Nup93
  MeanFenamidone: 78.3583
  log2FoldChange: 1.518
Gene Nxph1, DESeq mean, 4 reps
  MeanFenamidone Nxph1: 23.0758
Gene Nxph1, vs vehicle, 4 reps
  log2FoldChange Nxph1: -2.821
Gene Nxph2, DESeq mean, 4 reps
  MeanFenamidone Nxph2: 12.3649
Gene Nxph2, vs vehicle, 4 reps
  log2FoldChange Nxph2: -2.898
Gene P2ry2, DESeq mean, 4 reps
  MeanFenamidone P2ry2: 92.6995
Gene P2ry2, vs vehicle, 4 reps
  log2FoldChange P2ry2: 2.7714
Gene Parp3
  MeanFenamidone: 104.686
  log2FoldChange: 1.933
Gene Pcdh9
  MeanFenamidone: 219.607
  log2FoldChange: -1.474
Gene Pcdh17
  MeanFenamidone: 217.631
  log2FoldChange: -1.1203
Gene Pcdh19, DESeq mean, 4 reps
  MeanFenamidone Pcdh19: 219.013
Gene Pcdh19, vs vehicle, 4 reps
  log2FoldChange Pcdh19: -1.519
Gene Pcdhb9
  MeanFenamidone: 20.2277
  log2FoldChange: -1.874
Gene Pcyt1b, DESeq mean, 4 reps
  MeanFenamidone Pcyt1b: 228.459
Gene Pcyt1b, vs vehicle, 4 reps
  log2FoldChange Pcyt1b: -1.515
Gene Pdlim5, DESeq mean, 4 reps
  MeanFenamidone Pdlim5: 799.854
Gene Pdlim5, vs vehicle, 4 reps
  log2FoldChange Pdlim5: 2.0349
Gene Pgm2l1, DESeq mean, 4 reps
  MeanFenamidone Pgm2l1: 972.539
Gene Pgm2l1, vs vehicle, 4 reps
  log2FoldChange Pgm2l1: -1.841
Gene Phlda3, DESeq mean, 4 reps
  MeanFenamidone Phlda3: 537.092
Gene Phlda3, vs vehicle, 4 reps
  log2FoldChange Phlda3: 1.998
Gene Phldb2, DESeq mean, 4 reps
  MeanFenamidone Phldb2: 121.953
Gene Phldb2, vs vehicle, 4 reps
  log2FoldChange Phldb2: 2.252
Gene Phyh
  MeanFenamidone: 85.5792
  log2FoldChange: 1.618
Gene Piezo1, DESeq mean, 4 reps
  MeanFenamidone Piezo1: 449.998
Gene Piezo1, vs vehicle, 4 reps
  log2FoldChange Piezo1: 2.353
Gene Plcb3, DESeq mean, 4 reps
  MeanFenamidone Plcb3: 85.3651
Gene Plcb3, vs vehicle, 4 reps
  log2FoldChange Plcb3: 2.324
Gene Plec
  MeanFenamidone: 505.373
  log2FoldChange: 1.462
Gene Plekha7, DESeq mean, 4 reps
  MeanFenamidone Plekha7: 128.547
Gene Plekha7, vs vehicle, 4 reps
  log2FoldChange Plekha7: 1.951
Gene Plekhg2, DESeq mean, 4 reps
  MeanFenamidone Plekhg2: 436.894
Gene Plekhg2, vs vehicle, 4 reps
  log2FoldChange Plekhg2: 2.353
Gene Plxnb2, DESeq mean, 4 reps
  MeanFenamidone Plxnb2: 1959.53
Gene Plxnb2, vs vehicle, 4 reps
  log2FoldChange Plxnb2: 1.762
Gene Pnma2
  MeanFenamidone: 202.102
  log2FoldChange: -1.217
Gene Ppard
  MeanFenamidone: 113.665
  log2FoldChange: 1.493
Gene Ppm1e, DESeq mean, 4 reps
  MeanFenamidone Ppm1e: 435.513
Gene Ppm1e, vs vehicle, 4 reps
  log2FoldChange Ppm1e: -1.5474
Gene Pqlc3, DESeq mean, 4 reps
  MeanFenamidone Pqlc3: 109.637
Gene Pqlc3, vs vehicle, 4 reps
  log2FoldChange Pqlc3: 2.1113
Gene Prkcg, DESeq mean, 4 reps
  MeanFenamidone Prkcg: 26.526
Gene Prkcg, vs vehicle, 4 reps
  log2FoldChange Prkcg: -1.929
Gene Prkcz
  MeanFenamidone: 141.39
  log2FoldChange: -1.24
Gene Prrt2
  MeanFenamidone: 169.168
  log2FoldChange: -1.281
Gene Prss23
  MeanFenamidone: 845.081
